The source of these data is patent US9061079B2, “Peptides that home to atherosclerotic plaques and methods of use” (Sanford-Burnham Medical Research Institute, priority 2011, dated 2015).

Ends that are not written are not given here. FAM = fluorescein label

For assay [1], the system named is porcine iliofemoral arteries. As to conditions: arteries infected with adenoviral vector encoding tk, then exposure to ganciclovir; cited from earlier work.
The subject of assay [2] is cells released from plaques. The experiment in a line: FACS analysis of cells released from plaques after in vivo circulation of FAM-peptides. Details: species or system mice (ApoE-null). Particulars: for % of FAM positive cells among cells released from plaques: after 4 hours in vivo circulation. The source says:
(§1) Atherosclerotic plaques in male and female mice homozygous for the ApoetmlUnc mutation (ApoE-null mice) (The Jackson Laboratory) were induced by maintaining the mice on a high fat diet (Reddick et al., Arterioscler. Thromb. 14:141-147 (1994); Maeda et al., Atherosclerosis 195:75-82 (2007)) for 6 to 8 months. Healthy aortas were obtained from age-matched C7BL/6 wild-type mice fed on a normal diet. The mice were housed and all procedures performed with the approval and according to standards of the University of California, Santa Barbara and University of California, Davis Institutional Animal Care and Use Committees. To test peptide homing, the mice were injected intravenously via retro-orbital under isoflurane inhalation (isoflurane 2% to 3% vol/vol+2 L/min O2) anesthesia and, when applicable, subsequently perfused with high glucose DMEM through the left ventricle to remove unbound reagent. Tissues were excised and left unfixed or fixed with 4% paraformaldehyde.
Cells from plaques and other tissues were released into suspension by 2-hour incubation at 37° C. in a tissue digestion cocktail containing 450 U/mL collagenase type 1 (Worthington Biochemical), 1 mg/mL soybean trypsin inhibitor (Worthington Biochemical), 4.7 U/mL elastase (Worthington Biochemical), 1 mg/mL DNase 1 (Sigma Aldrich) and 0.5% fetal calf serum (FCS). CD11b PE-Cy5 (rat monoclonal, eBioscience) was used to identify monocytes/macrophages. Positive cells were quantified on GUAVA FACS instrument (Millipore) and data were analyzed using FCS Express Version 3 (De Novo Software).
To detect peptide homing to plaques, the distribution of intravenously injected peptides that had been labeled with fluorescein ([…]; FAM) were analyzed. […] Staining with an anti-fluorescein antibody confirmed the presence of LyP-1 in the plaques. For comparison, mice were also injected with a peptide previously shown to home to plaques, CREKA (SEQ ID NO:4) (Peters et al., Proc. Natl. Acad. Sci. USA 106:9815-9819 (2009)). […]
In general terms: Flow cytometry measures light scatter and fluorescence of single cells or particles in a stream.

Assay [3] deals with monocytes/macrophages isolated from spleen. As to the kind of experiment: Peptide binding ex vivo (FACS). The format is cell-based, mice. Particulars: 1 nmol FAM-peptide, 10 min on ice. Here is the method:
(§2) To produce 4T1 tumors, normal female BALB/c mice were orthotopically injected into the mammary fat pad with 1×10^6 4T1 cells suspended in 100 μL of PBS. All animal experimentation received approval from the Animal Research Committee of University of California, Santa Barbara. Fully grown 4T1 tumors and control spleen were excised from the mice two weeks after inoculation, minced and incubated with tissue digestion cocktail containing 2 mg/mL Collagenase IV (Worthington Biochem Corp) and 1 mg/mL DNAse 1 (Sigma) solution in high glucose DMEM media (Gibco) at 37° C. for 1 hour. Cells were passed through 70 μm nylon mesh cell strainer (BD). CD11b-positive macrophages were isolated using the MACS CD11b-positive microbeads (Miltenyi Biotec).
(§3) Dead cells were first removed from the cell suspension released from aorta, isolated macrophages from 4T1 tumors and spleen and bone marrow cells using Dead cell removal kit (Miltenyi Biotec). Cells were incubated with 1 nmol of either FAM-LyP-1 or FAM-ARAL (SEQ ID NO:5) for 10 min on ice. After washing, the cell pellets were resuspended in buffer containing 1 μg propidium iodide. Cells positive for FAM and propidium iodide staining were quantified on GUAVA FACS instrument (Millipore) and data were analyzed using FCS Express Version 3 (De Novo Software). The % of viable cells after dead cell removal in each case was >75%.

The subject of assay [4] is atherosclerotic plaques. As to the kind of experiment: Homing of intravenously injected FAM-labeled peptides to plaques, fluorescence histology of aorta sections. The format is in vivo, mice (ApoE-null). As to conditions: for accumulation in plaque tissue (fluorescence of aorta sections): atherosclerotic ApoE-null mice, 100 μg FAM-peptide intravenously, 1 hour circulation.
Source text: as §1
Fresh frozen OCT-embedded tissue was sectioned at 7 μm, fixed with ice cold acetone, blocked with 4% serum in PBS, and stained with antibodies. The following antibodies were used: anti-mouse p32 (rabbit polyclonal; (Fogal et al., supra (2008)), CD68 (rat monoclonal, eBioscience), CD11b (rat monoclonal, eBioscience), CD31 (rat monoclonal, eBioscience), podoplanin (hamster monoclonal, eBioscience), LYVE-1 (rat monoclonal, eBioscience), anti-FITC-HRP (goal polyclonal, ACRIS). Purified rat IgG2a K isotype control (BD Pharmingen), normal rabbit IgG (R&D) and normal goat IgG (R&D) were used as controls. The following secondary antibodies from Invitrogen were used for detection: goat anti-rat 488/546, goat anti-rabbit 488/546, donkey anti-goat 488/546, goat anti-hamster 546 and goat anti-rat 647. Primary antibodies were incubated for 1 to 4 hours at room temperature, or at 4° C. to detect cell surface expression. Stained tissue sections were mounted in Vectorshield DAPI-containing mounting media (Vector lab). […]
Tissue sections were examined under a FluoView™ 500 confocal laser-scanning microscope (Olympus) or BX60 fluorescence microscope with MiroFire camera (Olympus). Whole-tissue uptake of fluorescein-labeled peptides following in vivo circulation was imaged using a 530-nm viewing filter, Illumatool light source (Light Tools Research) and recorded with a Canon XTi DSLR camera.
To detect peptide homing to plaques, the distribution of intravenously injected peptides that had been labeled with fluorescein ([…]; FAM) were analyzed. […]
Atherosclerotic mice were injected with 100 μg of FAM-LyP-2 and the probe was allowed to circulate for 1 hour. Following 1 hour of circulation, the aorta was collected and the peptide was detected in tissue sections by fluorescence detection.

The next assay has as its system plaque macrophages. As to the kind of experiment: Effect of treatment on plaque macrophages (FACS of cells released from plaques). The format is in vivo, mice (ApoE null). Particulars: after 4 weeks of treatment, versus control-treated aortas. Here is the method: (§4) The effect of LyP-1 treatment on plaque formation was tested. ApoE null mice fed a high-fat diet for 5 months were treated with intraperitoneal injections of 200 μg of LyP-1 or control peptide ([…]; SEQ ID NO:6) three times a week for one month (while continuing their diet).
The effect of LyP-1 treatment on plaque macrophages was tested.

The subject of assay [5] is primary cells released from plaques. As to the kind of experiment: Peptide binding ex vivo (FACS). Particulars: 1 nmol FAM-peptide, 10 min on ice. The format is cell-based, mice (ApoE-null). As for the experimental part:
as §3

In another assay the test system is 4T1 tumors. As to the kind of experiment: Treatment of 4T1 tumor mice with peptide, effect on tumor macrophages. The class given is in vivo, mice (BALB/c). As to conditions: 60 μg daily tail vein injections for 12 days, versus control peptide. Here is the method:
The effect of LyP-1 peptide treatment of mice with tumors was tested. To produce 4T1 breast cancer tumors, normal female BALB/c mice were orthotopically injected into the mammary fat pad with 1×10^6 4T1 cells suspended in 100 μL of PBS. The mice were treated with daily tail vein injections of 60 μg of LyP-1 or control peptide ([…]; SEQ ID NO:6) for 12 days. […] Cell suspensions were prepared from 4T1 tumors from mice treated with LyP-1 or the control peptide. The tumors were incubated for 1 hour at 37° C. in a tissue digestion cocktail containing 2 mg/mL Collagenase IV (Worthington Biochem Corp) and 1 mg/mL DNAse 1 (Sigma) in high glucose DMEM media (Gibco). The resulting cell suspension was passed through 70 μm nylon mesh cell strainer (BD), and the live cells were double stained for cell surface p32 (rabbit anti-mouse p32, Fogal et al., supra (2008)) and macrophages (rat anti-mouse CD11b, ebioscience) and analyzed by FACS.

For assay [6], the system named is atherosclerotic plaques. The experiment in a line: Effect of treatment on plaque formation. The class given is in vivo, mice (ApoE null). Particulars: 200 μg intraperitoneally three times a week for one month, high-fat diet. Here is the method:
as §4

In assay [7] the test system is CD11b-positive macrophages from 4T1-tumors. As to the kind of experiment: Peptide binding ex vivo (FACS). The format is cell-based, mice (BALB/c). Particulars: 1 nmol FAM-peptide, 10 min on ice. As for the experimental part:
as §2, §3

A further assay has as its system bone marrow cells. As to the kind of experiment: Peptide binding ex vivo (FACS). The class given is cell-based, mice (ApoE). Particulars: 1 nmol FAM-peptide, 10 min on ice. As for the experimental part: Bone marrow cells were isolated from the tibias and femurs of ApoE mice on high fat diet by flushing high glucose DMEM media (Gibco) using an 18 gauge needle and passed through a 70 μm nylon mesh cell strainer (BD).
as §3

A further assay has as its system dermatitis. The experiment in a line: Treatment of dermatitis in ApoE-null mice on high-fat diet. The format is in vivo. As for the experimental part:
The effect of LyP-1 treatment on dermatitis was tested. ApoE-null mice that were on a high-fat diet and suffered from severe dermatitis refractory to topical antibiotic treatment were treated with intraperitoneal injections of 200 μg of LyP-1 or control peptide ([…]; SEQ ID NO:6) three times a week for one month (while continuing their diet). The condition of the skin before and after the treatment was recorded in photographs. […] Thus, LyP-1 treatment improves dermatitis.
The effect of LyP-1 on skin dermatitis correlates with reduced in p32 expression and macrophage accumulation. Mice treated as above in FIG. 19 were intravenously injected with 100 μL of 1 mM fluorescein-labeled LyP-1 and peptide was allowed to circulate for 2 hours. Sections of skin biopsies obtained before and after 4 weeks of LyP-1 treatment were analyzed.

The test system of a further assay is mitochondrial membranes. Particulars: concentration of 10 μM; cited from earlier work.
Setting [8] is: after 4 weeks of treatment, versus control-treated mice.
The mark [9] stands for this setting: 100 μL of 1 mM intravenously, 2 hours circulation.

Turning to `Nc1nc(O)c2ncn(COC(CO)CO)c2n1` [ganciclovir], the “reduction of neointimal thickening following balloon injury” value in assay [1] was 50-87%.
ARALPSQRSR: the “% of FAM positive cells among cells released from plaques” value in assay [2] worked out at 7.5±4.1%.
“CGNKRTRGC (disulfide (positions not given here); not fully specified (bridges); also: cyclic, kind not given here) [LyP-1]”: the “binding to monocytes/macrophages isolated from spleen” value in assay [3] is on record as “little binding”. The “accumulation in healthy aortas and non-aortic tissues of the atherosclerotic mice” value in the assay on atherosclerotic plaques [4] (intravenous FAM-peptide) is on record as “no significant accumulation”. The “percentage of total macrophages (p32-positive and negative) among cells released from plaques” value in the assay on plaque macrophages is listed as “lower percentage of total macrophages”. The “binding to primary cells released from plaques” value in assay [5] is on record as “significant binding”. For the same compound, in the assay with 4T1 tumors, the “macrophages positive for cell surface p32 in 4T1 tumors” value is reported as “reduced” and the “total number of macrophages (CD11b-positive cells) in 4T1 tumors” value was “reduced”. Moreover, in the assay on atherosclerotic plaques [6], the “plaque formation in excised ascending and descending aorta” value was “reduced plaque formation”. Also, the “binding to CD11b-positive macrophages from 4T1-tumors” value in assay [7] is on record as “significant binding”. In addition, the “binding to bone marrow cells” value in the assay with bone marrow cells is on record as “little binding”. In addition, in the assay on dermatitis (200 μg intraperitoneally three times a week for one month), the “skin condition (dermatitis)” value was “significant improvement of their skin condition”. Further, in the assay with dermatitis (setting [8]), the “cells positive for CD11b and p32 in skin” value is “smaller numbers of cells positive for CD11b and p32”; the “skin thickness of healed dermatitis skin” value is listed as “reduced thickness”.
On to CREKA, for which, in assay [2] (4 hours after intravenous injection), the “CD11b-positive plaque cells positive for peptide uptake” value is “taken up by a small number of CD11b-negative cells”. Moreover, the “% of FAM positive cells among cells released from plaques” value in [2] is 18.1±4.6%.
Turning to “D(KLAKLAK)2 (KLAKLAKKLAKLAK; D-amino acids)”, in the assay on mitochondrial membranes, the mitochondrial swelling result is “marked mitochondrial swelling”.
Consider “FAM-ARALPSQRSR: control peptide ARALPSQRSR labeled with FAM ({FAM}-ARALPSQRSR) [reference compound]”, for which, in the assay with atherosclerotic plaques [4], the “accumulation in plaque tissue (fluorescence of aorta sections)” value was “did not accumulate in the plaques”.
On the same count and under the same terms, in the case of “FAM-CREKA: CREKA peptide labeled with fluorescein (FAM) ({FAM}-CREKA) [reference compound]” it was “essentially confined to the surface of the plaques”.
For “FAM-LyP-1: LyP-1 peptide labeled with fluorescein (FAM) ({FAM}-CGNKRTRGC; disulfide (positions not given here); not fully specified (bridges); also: cyclic, kind not given here)”, the “accumulation in plaque tissue (fluorescence of aorta sections)” value with atherosclerotic plaques [4] is listed as “extensive accumulation of FAM-LyP-1 inside the plaque tissue”. In addition, in the assay with dermatitis (setting [9]), the “peptide homing to healed dermatitis skin from LyP-1-treated mice” value is on record as “attenuated LyP-1 homing”, the “peptide homing to inflamed skin from control-treated mice” value is reported as “robust LyP-1 homing” and the “peptide homing to normal skin” value is “no LyP-1 homing”.
